# Reference: PubChem BioAssay (NCI)
#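 1) Cells in 96-well plates. 2) Compound, 48 h, 5 concentrations. 3) Linear interpolation between surrounding doses. 4) Unreached endpoint = highest concentration. GI50 marks 50% less growth. Definition used: TGI = concentration required for complete inhibition of growth.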
# Experiments:
# Assay in all cases: NCI tumour cell line growth inhibition, 48 h
# A549 NSCLC = system: A549 NSCLC
# HT29 colon = system: HT29 colon
# SW-620 colon = system: SW-620 colon
# MALME-3M melanoma = system: MALME-3M melanoma
# MOLT-4 leukemia = system: MOLT-4 leukemia
# NCI-H460 lung = system: NCI-H460 lung
# SK-MEL-5 melanoma = system: SK-MEL-5 melanoma
# SNB-19 CNS = system: SNB-19 CNS
# MDA-MB-435 = system: MDA-MB-435
# MDA-MB-468 breast = system: MDA-MB-468 breast
# HCC-2998 colon = system: HCC-2998 colon
# SR leukemia = system: SR leukemia
# OVCAR-8 ovarian = system: OVCAR-8 ovarian
# SF-539 CNS = system: SF-539 CNS
# SK-OV-3 ovarian = system: SK-OV-3 ovarian
# SK-MEL-2 melanoma = system: SK-MEL-2 melanoma
# IGROV1 ovarian = system: IGROV1 ovarian
# PC-3 prostate = system: PC-3 prostate
# NCI-H226 lung = system: NCI-H226 lung
# SK-MEL-28 melanoma = system: SK-MEL-28 melanoma
# CCRF-CEM leukemia = system: CCRF-CEM leukemia
# HL-60(TB) leukemia = system: HL-60(TB) leukemia
# M14 melanoma = system: M14 melanoma
# K-562 leukemia = system: K-562 leukemia
# OVCAR-3 ovarian = system: OVCAR-3 ovarian
# KM12 colon = system: KM12 colon
# MCF7 breast = system: MCF7 breast
# U251 CNS = system: U251 CNS
# SF-268 CNS = system: SF-268 CNS
smiles,measurement,setting,value
COc1cc(/C=C/C(=O)c2cc(OC)c(OC)c(OC)c2)ccc1Oc1nc(Nc2ccc(F)cc2)nc(N(C)C)n1,GI50,A549 NSCLC,4.49 µM
same,TGI,A549 NSCLC,19.2 µM
same,GI50,HT29 colon,1.54 µM
same,TGI,HT29 colon,3.55 µM
same,GI50,SW-620 colon,1.55 µM
same,TGI,SW-620 colon,3.27 µM
same,GI50,MALME-3M melanoma,1.75 µM
same,TGI,MALME-3M melanoma,4.21 µM
same,GI50,MOLT-4 leukemia,0.472 µM
same,TGI,MOLT-4 leukemia,> 100 µM
same,GI50,NCI-H460 lung,1.45 µM
same,TGI,NCI-H460 lung,3.3 µM
same,GI50,SK-MEL-5 melanoma,2.16 µM
same,TGI,SK-MEL-5 melanoma,4.83 µM
same,GI50,SNB-19 CNS,1.86 µM
same,TGI,SNB-19 CNS,4.58 µM
same,GI50,MDA-MB-435,1.63 µM
same,TGI,MDA-MB-435,3.54 µM
same,GI50,MDA-MB-468 breast,1.35 µM
same,TGI,MDA-MB-468 breast,3.51 µM
same,GI50,HCC-2998 colon,2.03 µM
same,TGI,HCC-2998 colon,4.16 µM
same,GI50,SR leukemia,0.7 µM
same,TGI,SR leukemia,> 100 µM
same,GI50,OVCAR-8 ovarian,1.55 µM
same,TGI,OVCAR-8 ovarian,6.57 µM
same,GI50,SF-539 CNS,1.64 µM
same,TGI,SF-539 CNS,3.09 µM
same,GI50,SK-OV-3 ovarian,8.42 µM
same,TGI,SK-OV-3 ovarian,29.9 µM
same,GI50,SK-MEL-2 melanoma,1.69 µM
same,TGI,SK-MEL-2 melanoma,3.79 µM
same,GI50,IGROV1 ovarian,1.93 µM
same,TGI,IGROV1 ovarian,4.49 µM
same,GI50,PC-3 prostate,2.77 µM
same,TGI,PC-3 prostate,30.9 µM
same,GI50,NCI-H226 lung,1.44 µM
same,TGI,NCI-H226 lung,3.23 µM
same,GI50,SK-MEL-28 melanoma,1.8 µM
same,TGI,SK-MEL-28 melanoma,4.07 µM
same,GI50,CCRF-CEM leukemia,2.19 µM
same,TGI,CCRF-CEM leukemia,> 100 µM
same,GI50,HL-60(TB) leukemia,2.21 µM
same,TGI,HL-60(TB) leukemia,8.24 µM
same,GI50,M14 melanoma,2.83 µM
same,TGI,M14 melanoma,10.8 µM
same,GI50,K-562 leukemia,1.4 µM
same,TGI,K-562 leukemia,> 100 µM
same,GI50,OVCAR-3 ovarian,2.57 µM
same,TGI,OVCAR-3 ovarian,> 100 µM
same,GI50,KM12 colon,3.63 µM
same,TGI,KM12 colon,88.6 µM
same,GI50,MCF7 breast,1.06 µM
same,TGI,MCF7 breast,4.07 µM
same,GI50,U251 CNS,0.503 µM
same,TGI,U251 CNS,2.43 µM
same,GI50,SF-268 CNS,3.43 µM
